# Measured values from PubChem BioAssay (NCI).
#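 Compound exposure: 48 hours, 5 concentrations, 96-well plates. The concentration for full growth arrest is given as TGI.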
# What was measured:
# Experiment in all cases: DTP human tumour cell line panel, 48 h
# HS 578T breast = system: HS 578T breast
# CAKI-1 renal = system: CAKI-1 renal
# OVCAR-5 ovarian = system: OVCAR-5 ovarian
# COLO 205 colon = system: COLO 205 colon
# SK-MEL-2 melanoma = system: SK-MEL-2 melanoma
# MOLT-4 leukemia = system: MOLT-4 leukemia
# A549 NSCLC = system: A549 NSCLC
# HCC-2998 colon = system: HCC-2998 colon
# SW-620 colon = system: SW-620 colon
# OVCAR-8 ovarian = system: OVCAR-8 ovarian
# HCT-15 colon = system: HCT-15 colon
# UO-31 renal = system: UO-31 renal
# HT29 colon = system: HT29 colon
# NCI-H522 lung = system: NCI-H522 lung
# MDA-MB-435 = system: MDA-MB-435
# HOP-92 NSCLC = system: HOP-92 NSCLC
# NCI/ADR-RES ovarian = system: NCI/ADR-RES ovarian
# SN12C renal = system: SN12C renal
# MDA-N = system: MDA-N
# SK-MEL-28 melanoma = system: SK-MEL-28 melanoma
# ACHN renal = system: ACHN renal
# LOX IMVI melanoma = system: LOX IMVI melanoma
# U251 CNS = system: U251 CNS
# OVCAR-4 ovarian = system: OVCAR-4 ovarian
# M14 melanoma = system: M14 melanoma
# SK-OV-3 ovarian = system: SK-OV-3 ovarian
# SF-295 CNS = system: SF-295 CNS
# T-47D breast = system: T-47D breast
# SR leukemia = system: SR leukemia
# DU-145 prostate = system: DU-145 prostate
# HCT-116 colon = system: HCT-116 colon
# CCRF-CEM leukemia = system: CCRF-CEM leukemia
# HL-60(TB) leukemia = system: HL-60(TB) leukemia
# MDA-MB-231 breast = system: MDA-MB-231 breast
# K-562 leukemia = system: K-562 leukemia
# TK-10 renal = system: TK-10 renal
# PC-3 prostate = system: PC-3 prostate
# UACC-257 melanoma = system: UACC-257 melanoma
# IGROV1 ovarian = system: IGROV1 ovarian
# OVCAR-3 ovarian = system: OVCAR-3 ovarian
# HOP-62 NSCLC = system: HOP-62 NSCLC
# SNB-19 CNS = system: SNB-19 CNS
# NCI-H226 lung = system: NCI-H226 lung
# RPMI-8226 leukemia = system: RPMI-8226 leukemia
# NCI-H23 lung = system: NCI-H23 lung
# SNB-75 CNS = system: SNB-75 CNS
# SK-MEL-5 melanoma = system: SK-MEL-5 melanoma
# NCI-H460 lung = system: NCI-H460 lung
# SF-539 CNS = system: SF-539 CNS
# KM12 colon = system: KM12 colon
# 786-0 renal = system: 786-0 renal
# UACC-62 melanoma = system: UACC-62 melanoma
# SF-268 CNS = system: SF-268 CNS
# MALME-3M melanoma = system: MALME-3M melanoma
smiles,measurement,setting,value
c1ccc(N=C(N2CCCCC2)N(CCN2CCCCC2)c2ccccc2)cc1,TGI,HS 578T breast,3.51 µM
same,TGI,CAKI-1 renal,14.1 µM
same,TGI,OVCAR-5 ovarian,8.01 µM
same,TGI,COLO 205 colon,11.2 µM
same,TGI,SK-MEL-2 melanoma,4.64 µM
same,TGI,MOLT-4 leukemia,1.74 µM
same,TGI,A549 NSCLC,14.2 µM
same,TGI,HCC-2998 colon,5.16 µM
same,TGI,SW-620 colon,13.7 µM
same,TGI,OVCAR-8 ovarian,11.3 µM
same,TGI,HCT-15 colon,12.7 µM
same,TGI,UO-31 renal,8.07 µM
same,TGI,HT29 colon,2.93 µM
same,TGI,NCI-H522 lung,4.58 µM
same,TGI,MDA-MB-435,9.01 µM
same,TGI,HOP-92 NSCLC,6.2 µM
same,TGI,NCI/ADR-RES ovarian,4.29 µM
same,TGI,SN12C renal,12.5 µM
same,TGI,MDA-N,2.96 µM
same,TGI,SK-MEL-28 melanoma,8.65 µM
same,TGI,ACHN renal,4.58 µM
same,TGI,LOX IMVI melanoma,2.39 µM
same,TGI,U251 CNS,5.39 µM
same,TGI,OVCAR-4 ovarian,17 µM
same,TGI,M14 melanoma,16.1 µM
same,TGI,SK-OV-3 ovarian,14 µM
same,TGI,SF-295 CNS,2.21 µM
same,TGI,T-47D breast,9.23 µM
same,TGI,SR leukemia,2.31 µM
same,TGI,DU-145 prostate,12.7 µM
same,TGI,HCT-116 colon,4.18 µM
same,TGI,CCRF-CEM leukemia,2.03 µM
same,TGI,HL-60(TB) leukemia,1.02 µM
same,TGI,MDA-MB-231 breast,11 µM
same,TGI,K-562 leukemia,4.27 µM
same,TGI,TK-10 renal,14.2 µM
same,TGI,PC-3 prostate,3.72 µM
same,TGI,UACC-257 melanoma,6.61 µM
same,TGI,IGROV1 ovarian,12.1 µM
same,TGI,OVCAR-3 ovarian,2.51 µM
same,TGI,HOP-62 NSCLC,3.07 µM
same,TGI,SNB-19 CNS,14.4 µM
same,TGI,NCI-H226 lung,16 µM
same,TGI,RPMI-8226 leukemia,0.627 µM
same,TGI,NCI-H23 lung,7.17 µM
same,TGI,SNB-75 CNS,6.44 µM
same,TGI,SK-MEL-5 melanoma,3.3 µM
same,TGI,NCI-H460 lung,2.02 µM
O=C(OC1C(Oc2ccccc2COC(=O)C2(O)C=CCCC2=O)OC(CO)C(O)C1O)c1ccccc1 (configuration not stated),TGI,SF-539 CNS,> 100 µM
same,TGI,HS 578T breast,56.4 µM
same,TGI,KM12 colon,> 100 µM
same,TGI,CAKI-1 renal,28.3 µM
same,TGI,OVCAR-5 ovarian,> 100 µM
same,TGI,COLO 205 colon,90.3 µM
same,TGI,SK-MEL-2 melanoma,> 100 µM
same,TGI,MOLT-4 leukemia,76.9 µM
same,TGI,A549 NSCLC,38.8 µM
same,TGI,SW-620 colon,> 100 µM
same,TGI,786-0 renal,> 100 µM
same,TGI,UACC-62 melanoma,> 100 µM
same,TGI,OVCAR-8 ovarian,> 100 µM
same,TGI,HCT-15 colon,> 100 µM
same,TGI,UO-31 renal,> 100 µM
same,TGI,HT29 colon,> 100 µM
same,TGI,NCI-H522 lung,51.1 µM
same,TGI,MDA-MB-435,> 100 µM
same,TGI,HOP-92 NSCLC,42.5 µM
same,TGI,NCI/ADR-RES ovarian,> 100 µM
same,TGI,SN12C renal,> 100 µM
same,TGI,MDA-N,> 100 µM
same,TGI,SK-MEL-28 melanoma,> 100 µM
same,TGI,SF-268 CNS,93.5 µM
same,TGI,ACHN renal,> 100 µM
same,TGI,LOX IMVI melanoma,> 100 µM
same,TGI,U251 CNS,> 100 µM
same,TGI,OVCAR-4 ovarian,> 100 µM
same,TGI,MALME-3M melanoma,82.1 µM
same,TGI,M14 melanoma,> 100 µM
same,TGI,SK-OV-3 ovarian,> 100 µM
same,TGI,SR leukemia,> 100 µM
same,TGI,DU-145 prostate,> 100 µM
same,TGI,HCT-116 colon,> 100 µM
same,TGI,HL-60(TB) leukemia,54.6 µM
same,TGI,MDA-MB-231 breast,> 100 µM
same,TGI,K-562 leukemia,> 100 µM
same,TGI,TK-10 renal,> 100 µM
same,TGI,PC-3 prostate,> 100 µM
same,TGI,UACC-257 melanoma,> 100 µM
same,TGI,IGROV1 ovarian,> 100 µM
same,TGI,HOP-62 NSCLC,> 100 µM
same,TGI,SNB-19 CNS,> 100 µM
same,TGI,NCI-H226 lung,> 100 µM
same,TGI,RPMI-8226 leukemia,58.1 µM
same,TGI,NCI-H23 lung,> 100 µM
same,TGI,SNB-75 CNS,60 µM
same,TGI,SK-MEL-5 melanoma,17.9 µM
same,TGI,NCI-H460 lung,> 100 µM
